As a reminder, the IC50 is the concentration needed to halve the response being measured. A low value points to higher potency.

T1 sequence (Q16539 whole entry): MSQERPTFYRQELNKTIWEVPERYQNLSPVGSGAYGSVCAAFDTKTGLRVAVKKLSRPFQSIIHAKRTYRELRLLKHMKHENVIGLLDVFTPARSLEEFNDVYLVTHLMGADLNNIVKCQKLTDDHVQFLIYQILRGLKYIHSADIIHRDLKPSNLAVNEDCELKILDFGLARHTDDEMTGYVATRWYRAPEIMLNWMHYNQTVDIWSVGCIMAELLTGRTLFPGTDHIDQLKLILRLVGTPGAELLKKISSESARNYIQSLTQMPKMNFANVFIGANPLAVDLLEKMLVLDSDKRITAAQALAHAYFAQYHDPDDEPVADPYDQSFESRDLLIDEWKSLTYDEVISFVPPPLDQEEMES

The assay concerns the target T1, active p38 alpha enzyme (Upstate Biotechnology) (Homo sapiens, UniProt Q16539).
T1 construct: purchased Upstate Biotechnology
Kind of assay: p38α biochemical assay (ATP turnover, luminescent detection, Cambrex PKlight). The following applies: p38α kinase; Table 1 Biological Activity. Summed up:
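Luminescent ATP-depletion readout measures total ATP turnover by p38α phosphorylating whole MapkapK2 protein. ATP 1.4 uM final; 30C, 2 h. Compounds delivered from DMSO.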
For `CC(C)NC(=O)c1csc(-c2oc(CNC3CC(C)(C)NC(C)(C)C3)nc2-c2ccc(F)cc2)n1` [Example 1152], the IC50 is greater than 1 µM.
Take `CCN(CC)CCCC(C)NCc1nc(-c2ccc(F)cc2)c(-c2nc(C(=O)NC(C)C)cs2)o1` (centres unmarked) [Example 1153]: the 50% inhibitory concentration (IC50) is greater than 1 µM.
Take `CC(C)NC(=O)c1csc(-c2oc(CNCc3ccc(F)c(Cl)c3)nc2-c2ccc(F)cc2)n1` [Example 1154]: the concentration for half-maximal inhibition (IC50) is greater than 1 µM.
For `CC(C)NC(=O)c1csc(-c2oc(CN(CCC#N)Cc3ccccc3)nc2-c2ccc(F)cc2)n1` [Example 1155] the value was greater than 1 µM; for `CC(C)NC(=O)c1csc(-c2oc(CNCCNC(=O)OC(C)(C)C)nc2-c2ccc(F)cc2)n1` [Example 1156], greater than 1 µM; for `CC(C)NC(=O)c1csc(-c2oc(CNCCc3c[nH]c4ccccc34)nc2-c2ccc(F)cc2)n1` [Example 1157], greater than 1 µM.
In the case of `CC(C)NC(=O)c1csc(-c2oc(CNCc3ccc(C(C)(C)C)cc3)nc2-c2ccc(F)cc2)n1` [Example 1158], the IC50 was greater than 1 µM.
For `CC(C)NC(=O)c1csc(-c2oc(CNCCCN(C)c3ccccc3)nc2-c2ccc(F)cc2)n1` [Example 1159] the value was greater than 1 µM.
For `CC(C)NC(=O)c1csc(-c2oc(CNCC3(O)CCCCC3)nc2-c2ccc(F)cc2)n1` [Example 1160] the value was greater than 1 µM; for `COc1cc(CNCc2nc(-c3ccc(F)cc3)c(-c3nc(C(=O)NC(C)C)cs3)o2)cc(OC)c1` [Example 1161], greater than 1 µM; for `COc1ccc(CNCc2nc(-c3ccc(F)cc3)c(-c3nc(C(=O)NC(C)C)cs3)o2)cc1OC` [Example 1162], greater than 1 µM.
For `CC(C)NC(=O)c1csc(-c2oc(CNCC(=O)c3ccccc3)nc2-c2ccc(F)cc2)n1` [Example 1163], the half-maximal inhibitory concentration (IC50) was greater than 1 µM.
For `CCOC(=O)N1CCC(NCc2nc(-c3ccc(F)cc3)c(-c3nc(C(=O)NC(C)C)cs3)o2)CC1` [Example 1164] the value was greater than 1 µM.
In turn, `CC(C)NC(=O)c1csc(-c2oc(CNCCCNC(=O)OC(C)(C)C)nc2-c2ccc(F)cc2)n1` [Example 1165] showed an IC50 greater than 1 µM.
Molecule `CC(C)NC(=O)c1csc(-c2oc(CNCc3ccc(C(F)(F)F)cc3)nc2-c2ccc(F)cc2)n1` [Example 1166] showed an IC50 greater than 1 µM.
For `CC(C)NC(=O)c1csc(-c2oc(CNCc3cccc(C(F)(F)F)c3)nc2-c2ccc(F)cc2)n1` [Example 1167] the value was greater than 1 µM.
For `CC(C)NC(=O)c1csc(-c2oc(CNCc3ccc(Cl)c(Cl)c3)nc2-c2ccc(F)cc2)n1` [Example 1168] the value was greater than 1 µM.
Next, `CC(C)NC(=O)c1csc(-c2oc(CNCc3ccc(Cl)cc3Cl)nc2-c2ccc(F)cc2)n1` [Example 1169]: greater than 1 µM.
As for `CC(C)NC(=O)c1csc(-c2oc(CNC3CCN(Cc4ccccc4)C3)nc2-c2ccc(F)cc2)n1` (centres unmarked) [Example 1170], the IC50 is no more than 1 µM.
Next, `COc1ccc(OC)c(CCNCc2nc(-c3ccc(F)cc3)c(-c3nc(C(=O)NC(C)C)cs3)o2)c1` [Example 1171]: greater than 1 µM; `CC(C)NC(=O)c1csc(-c2oc(CNCc3ccc(N(C)C)cc3)nc2-c2ccc(F)cc2)n1` [Example 1172]: greater than 1 µM; `COc1ccc(CNCc2nc(-c3ccc(F)cc3)c(-c3nc(C(=O)NC(C)C)cs3)o2)cc1O` [Example 1173]: no more than 1 µM.
With `CC(C)NC(=O)c1csc(-c2oc(CNC3CCN(Cc4ccccc4)CC3)nc2-c2ccc(F)cc2)n1` [Example 1174], the IC50 is greater than 1 µM.
In the case of `CC(C)NC(=O)c1csc(-c2oc(CNCc3ccccc3OC(F)(F)F)nc2-c2ccc(F)cc2)n1` [Example 1175], the IC50 is no more than 1 µM.
For `CC(C)NC(=O)c1csc(-c2oc(CNCCc3ccc(S(N)(=O)=O)cc3)nc2-c2ccc(F)cc2)n1` [Example 1176] the value was no more than 1 µM; for `COc1ccc(C(=O)CNCc2nc(-c3ccc(F)cc3)c(-c3nc(C(=O)NC(C)C)cs3)o2)cc1` [Example 1177], greater than 1 µM; for `CC(C)NC(=O)c1csc(-c2oc(CNCCc3ccc4c(c3)OCO4)nc2-c2ccc(F)cc2)n1` [Example 1178], greater than 1 µM.
For `CC(C)NC(=O)c1csc(-c2oc(CNCCC(c3ccccc3)c3ccccc3)nc2-c2ccc(F)cc2)n1` [Example 1179] the value was greater than 1 µM.
For `Cc1ccc(S(=O)(=O)NCCNCc2nc(-c3ccc(F)cc3)c(-c3nc(C(=O)NC(C)C)cs3)o2)cc1` [Example 1180] the value was no more than 1 µM.
On to `CC(C)NC(=O)c1csc(-c2oc(CBr)nc2-c2ccc(F)cc2)n1` [Example 1181], for which the 50% inhibitory concentration (IC50) is greater than 1 µM.
For `CC(C)NC(=O)c1csc(-c2oc(CN(C)C)nc2-c2ccc(F)cc2)n1` [Example 1182] the value was no more than 1 µM; for `CC(C)NC(=O)c1csc(-c2oc(CN3CCOCC3)nc2-c2ccc(F)cc2)n1` [Example 1183], no more than 1 µM; for `CCN(C)Cc1nc(-c2ccc(F)cc2)c(-c2nc(C(=O)NC(C)C)cs2)o1` [Example 1186], greater than 1 µM.
For `C#CCN(C)Cc1nc(-c2ccc(F)cc2)c(-c2nc(C(=O)NC(C)C)cs2)o1` [Example 1187] the value was greater than 1 µM.
For `CCN(CC)Cc1nc(-c2ccc(F)cc2)c(-c2nc(C(=O)NC(C)C)cs2)o1` [Example 1188] the value was greater than 1 µM; for `CCCN(C)Cc1nc(-c2ccc(F)cc2)c(-c2nc(C(=O)NC(C)C)cs2)o1` [Example 1189], greater than 1 µM.
Consider `CC(C)NC(=O)c1csc(-c2oc(CN(C)CCO)nc2-c2ccc(F)cc2)n1` [Example 1190], for which the concentration for half-maximal inhibition (IC50) is greater than 1 µM.
As for `CC(C)NC(=O)c1csc(-c2oc(CN(C)CCC#N)nc2-c2ccc(F)cc2)n1` [Example 1191], the IC50 was greater than 1 µM.
Take `CC(C)CN(C)Cc1nc(-c2ccc(F)cc2)c(-c2nc(C(=O)NC(C)C)cs2)o1` [Example 1192]: the IC50 was greater than 1 µM.
For `CCN(Cc1nc(-c2ccc(F)cc2)c(-c2nc(C(=O)NC(C)C)cs2)o1)C(C)C` [Example 1193] the value was greater than 1 µM; for `CCCCN(C)Cc1nc(-c2ccc(F)cc2)c(-c2nc(C(=O)NC(C)C)cs2)o1` [Example 1194], greater than 1 µM; for `CCN(CCO)Cc1nc(-c2ccc(F)cc2)c(-c2nc(C(=O)NC(C)C)cs2)o1` [Example 1195], greater than 1 µM.
In turn, `CC(C)NC(=O)c1csc(-c2oc(CN3CCSC3)nc2-c2ccc(F)cc2)n1` [Example 1196] gave a half-inhibitory concentration (IC50) greater than 1 µM.
Next, `CC(C)NC(=O)c1csc(-c2oc(CN3CCCCC3C)nc2-c2ccc(F)cc2)n1` (centres unmarked) [Example 1197]: greater than 1 µM; `CC1CCN(Cc2nc(-c3ccc(F)cc3)c(-c3nc(C(=O)NC(C)C)cs3)o2)CC1` [Example 1198]: greater than 1 µM.
`CC(C)NC(=O)c1csc(-c2oc(CN3CCN(C)CC3)nc2-c2ccc(F)cc2)n1` [Example 1199] came in with an IC50 greater than 1 µM.
`CC(C)NC(=O)c1csc(-c2oc(CN3CCCC3CO)nc2-c2ccc(F)cc2)n1` (centres unmarked) [Example 1200] gave an IC50 greater than 1 µM.
Next, `CC(C)NC(=O)c1csc(-c2oc(CN3CCC[C@@H]3CO)nc2-c2ccc(F)cc2)n1` [Example 1201]: greater than 1 µM; `CCCCN(CC)Cc1nc(-c2ccc(F)cc2)c(-c2nc(C(=O)NC(C)C)cs2)o1` [Example 1202]: greater than 1 µM.
For `CCCN(CCC)Cc1nc(-c2ccc(F)cc2)c(-c2nc(C(=O)NC(C)C)cs2)o1` [Example 1203] the value was greater than 1 µM.
Next, `CC(C)NC(=O)c1csc(-c2oc(CN3CCSCC3)nc2-c2ccc(F)cc2)n1` [Example 1204]: greater than 1 µM.
In turn, `CC(C)NC(=O)c1csc(-c2oc(CN(CCO)CCO)nc2-c2ccc(F)cc2)n1` [Example 1205] came in with a concentration for half-maximal inhibition (IC50) greater than 1 µM.
Next, `CC1CC(C)CN(Cc2nc(-c3ccc(F)cc3)c(-c3nc(C(=O)NC(C)C)cs3)o2)C1` (centres unmarked) [Example 1206]: greater than 1 µM.
In the case of `CC(C)NC(=O)c1csc(-c2oc(CN(C)C3CCCCC3)nc2-c2ccc(F)cc2)n1` [Example 1207], the half-inhibitory concentration (IC50) was greater than 1 µM.
For `CC(C)NC(=O)c1csc(-c2oc(CN3C(C)CCCC3C)nc2-c2ccc(F)cc2)n1` (centres unmarked) [Example 1208] the value was greater than 1 µM; for `CC(C)NC(=O)c1csc(-c2oc(CN3CCC(N(C)C)C3)nc2-c2ccc(F)cc2)n1` (centres unmarked) [Example 1209], greater than 1 µM.
For `CC(C)NC(=O)c1csc(-c2oc(CN3C[C@@H](C)N[C@@H](C)C3)nc2-c2ccc(F)cc2)n1` [Example 1210], the IC50 was greater than 1 µM.
For `CC(C)NC(=O)c1csc(-c2oc(CN3CCCC(CO)C3)nc2-c2ccc(F)cc2)n1` (centres unmarked) [Example 1211] the value was greater than 1 µM.
For `COC[C@@H]1CCCN1Cc1nc(-c2ccc(F)cc2)c(-c2nc(C(=O)NC(C)C)cs2)o1` [Example 1212] the value was greater than 1 µM.
For `CC(C)NC(=O)c1csc(-c2oc(CN3CC(C)OC(C)C3)nc2-c2ccc(F)cc2)n1` (centres unmarked) [Example 1213] the value was greater than 1 µM; for `CC(C)NC(=O)c1csc(-c2oc(CN3CCCCC3CO)nc2-c2ccc(F)cc2)n1` (centres unmarked) [Example 1214], greater than 1 µM.
As to `CCN(CCCCO)Cc1nc(-c2ccc(F)cc2)c(-c2nc(C(=O)NC(C)C)cs2)o1` [Example 1215], the IC50 is greater than 1 µM.
`CC(C)NC(=O)c1csc(-c2oc(CN3Cc4ccccc4C3)nc2-c2ccc(F)cc2)n1` [Example 1216] showed a half-maximal inhibitory concentration (IC50) greater than 1 µM.
For `CC(C)NC(=O)c1csc(-c2oc(CN(C)Cc3ccccc3)nc2-c2ccc(F)cc2)n1` [Example 1217] the value was greater than 1 µM; for `CCN(Cc1nc(-c2ccc(F)cc2)c(-c2nc(C(=O)NC(C)C)cs2)o1)C1CCCCC1` [Example 1218], greater than 1 µM.
As to `CC(C)NC(=O)c1csc(-c2oc(CN3CCC(C(N)=O)CC3)nc2-c2ccc(F)cc2)n1` [Example 1219], the IC50 is greater than 1 µM.
The molecule `CC(=O)N[C@H]1CCN(Cc2nc(-c3ccc(F)cc3)c(-c3nc(C(=O)NC(C)C)cs3)o2)C1` [Example 1220] gave an IC50 greater than 1 µM.
Regarding `CC(C)NC(=O)c1csc(-c2oc(CN3CCCC(C(N)=O)C3)nc2-c2ccc(F)cc2)n1` (centres unmarked) [Example 1222], the IC50 was greater than 1 µM.

For the origin of these results see patent publication US20060252807A1, “Novel ortho-terphenyl inhibitors of p38 kinase and methods of treating inflammatory disorders” (Kalypsys, Inc., priority 2005, published 2006).
